In the Bradley open melting point set (2014):
Where “and” joins values, the source holds several entries; their conditions need not be identical. Equal entries are not always repeated.

melting point | Structure (SMILES)
88.5 °C | CC(C)(C)OC(=O)NCC(=O)O [boc-glycine]
230 °C | CCCCNc1cc(C(=O)O)cc(S(N)(=O)=O)c1Oc1ccccc1 [bumetanide]
116 °C | CS(=O)(=O)OCCCCOS(C)(=O)=O [busulfan]
69 °C | CCCCOC(=O)c1ccc(O)cc1 [butyl 4-hydroxybenzoate]
69 °C | CCCCOC(=O)c1ccc(O)cc1 [butyl p-hydroxybenzoate]
-12 °C | CCCCOC(=O)c1ccccc1 [butyl_benzoate]
68.5 °C (2×) and 69 °C | CCCCOC(=O)c1ccc(O)cc1 [butylparaben]
115 °C | CCCC(N)=O [butyramide]
121 °C | COc1cc(C(=O)NCCCCCC(=O)O)cc(OC)c1OC [capobenicacid]
190 °C | NC(=O)N1c2ccccc2C=Cc2ccccc21 [carbamazepine]
190 °C and 192 °C (2×) | NC(=O)N1c2ccccc2C=Cc2ccccc21 [carbazepine]
57 °C | CC(=O)Oc1ccccc1O [catechol_monoacetate_(ortho)]
190 °C | Cc1nnc(SCC2=C(C(=O)O)N3C(=O)[C@@H](NC(=O)Cn4cnnn4)[C@H]3SC2)s1 [cefazolin]
158 °C | Cc1ccc(-c2cc(C(F)(F)F)nn2-c2ccc(S(N)(=O)=O)cc2)cc1 [celecoxib]
151 °C | O=C(N[C@H](CO)[C@H](O)c1ccc([N+](=O)[O-])cc1)C(Cl)Cl [chloramphenicol]
233 °C | Nc1ncnc(Nc2ccc(Cl)cc2)n1 [chlorazanil]
57 °C | CN(C)CCCN1c2ccccc2Sc2ccc(Cl)cc21 [chlorpromazine]
175 °C | N#Cc1coc2ccccc2c1=O [chromone-3-carbonitrile]
254 °C | c1ccc2c(c1)ccc1c3ccccc3ccc21 [chrysene]
133 °C | O=C(O)/C=C/c1ccccc1 [cinnamic acid]
7 °C | ClC/C=C/c1ccccc1 [cinnamyl chloride]
34 °C | OCC=Cc1ccccc1 [cinnamyl_alcohol]
166 °C | O=C1OC(=O)C2C3C=CC(C3)C12 (stereo not drawn) [cis-5-norbornene-endo-2,3-dicarboxylic anhydride]
8 °C | CC1=CC(=O)OC1=O [citraconic anhydride]
194 °C | COc1cc(N)c(Cl)cc1C(=O)NC1CCN(Cc2ccccc2)CC1 [clebopride]
211 °C | Clc1ccc(cc1)NC3=CC4=Nc2ccccc2N(C4=C/C3=NC(C)C)c5ccc(Cl)cc5 [clofazimine]
147 °C | Clc1ccccc1C(c1ccccc1)(c1ccccc1)n1ccnc1 [clotrimazole]
184 °C | CN1CCN(C2=Nc3cc(Cl)ccc3Nc3ccccc32)CC1 [clozapine]

The remaining lines, values behind:

Structure (SMILES) | melting point
O=S(=O)(c1ccc(Cl)cc1)c1ccc(Cl)cc1 [bis(4-chlorophenyl) sulfone] | 149 °C
CC1(C)[C@H]2CC[C@]1(C)[C@H](O)C2 [borneol] | 207 °C
CC1(C)[C@@H]2CC[C@@]1(C)[C@@H](O)C2 [borneol] | 207 °C
CCC(C)C1(CC)C(=O)NC(=O)NC1=O (stereo unspecified) [butabarbital] | 166 °C
C=CCC1(CC(C)C)C(=O)NC(=O)NC1=O [butalbital] [listing 1 of 2 here] | 138 °C
C=CCC1(CC(C)C)C(=O)NC(=O)NC1=O [butalbital] [listing 2 of 2 here] | 140 °C
CCCC [butane] | -138 °C and -137 °C
CNC(=O)Oc1cccc2ccccc12 [carbaryl] | 142 °C
NNC(=O)NN [carbohydrazide] | 156 °C
S=C=S [carbon disulfide] | -112 °C
Clc1ccccc1 [chlorobenzene] | -45 °C
ClC1CCCCC1 [chlorocyclohexane] | -44 °C
ClC(Cl)Cl [chloroform] | -63 °C
C[C@H](CCC(=O)O)[C@H]1CC[C@H]2[C@@H]3[C@H](O)C[C@@H]4C[C@H](O)CC[C@]4(C)[C@H]3C[C@H](O)[C@]12C [cholic acid] | 201 °C
C=C[C@H]1C[N@@]2CC[C@H]1C[C@H]2[C@H](O)c1ccnc2ccccc12 [cinchonidine] | 204 °C
C=C[C@H]1C[N@@]2CC[C@H]1C[C@@H]2[C@@H](O)c1ccnc2ccccc12 [cinchonine] | 258 °C
O=C(O)[C@H]1CCCC[C@H]1C(=O)O [cis-1,2-cyclohexanedicarboxylic acid] | 191 °C
C[C@H]1CC[C@@H](C)CC1 [cis-1,4-dimethylcyclohexane] | -87 °C
OC/C=C\CO [cis-2-butene-1,4-diol] | 7 °C
C/C=C\CC [cis-2-pentene] | -151 °C
C1CC[C@H]2CCCC[C@H]2C1 [cis-Decahydronaphthalene] | -43 °C
C1CC[C@H]2CCCC[C@H]2C1 [cis-decahydronaphthalene] | -43 °C
COc1ccc2c3c1O[C@H]1[C@@H](O)C=C[C@H]4[C@@H](C2)N(C)CC[C@@]341 [codeine] | 158 °C
